Assay results: PubChem BioAssay (NCI)
Several values for one entry are separate records, joined by “and”; a condition that tells them apart may be missing. Equal values may be shown once.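 Where inhibition never reached the appropriate level, the endpoint shown equals the highest concentration tested. Otherwise, values were interpolated linearly from a five-concentration, 48-hour dose response in 96-well plates. Here, GI50 denotes the concentration required for 50% inhibition of growth. The concentration for full growth arrest is given as TGI.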

Assays:
Experiment in all cases: inhibition of tumour cell growth, NCI panel, 48 h
PC-3 prostate = tested on: PC-3 prostate
OVCAR-3 ovarian = tested on: OVCAR-3 ovarian
NCI-H522 lung = tested on: NCI-H522 lung
HOP-92 NSCLC = tested on: HOP-92 NSCLC
HCC-2998 colon = tested on: HCC-2998 colon
RXF 393 renal = tested on: RXF 393 renal
NCI-H23 lung = tested on: NCI-H23 lung
UACC-257 melanoma = tested on: UACC-257 melanoma
NCI-H460 lung = tested on: NCI-H460 lung
HT29 colon = tested on: HT29 colon
MOLT-4 leukemia = tested on: MOLT-4 leukemia
U251 CNS = tested on: U251 CNS
TK-10 renal = tested on: TK-10 renal
SNB-19 CNS = tested on: SNB-19 CNS
T-47D breast = tested on: T-47D breast
OVCAR-5 ovarian = tested on: OVCAR-5 ovarian
SN12C renal = tested on: SN12C renal
UO-31 renal = tested on: UO-31 renal
SK-MEL-2 melanoma = tested on: SK-MEL-2 melanoma
MALME-3M melanoma = tested on: MALME-3M melanoma
SW-620 colon = tested on: SW-620 colon
SK-MEL-28 melanoma = tested on: SK-MEL-28 melanoma
MDA-MB-231 breast = tested on: MDA-MB-231 breast
EKVX NSCLC = tested on: EKVX NSCLC
MCF7 breast = tested on: MCF7 breast
NCI-H226 lung = tested on: NCI-H226 lung
LOX IMVI melanoma = tested on: LOX IMVI melanoma
M14 melanoma = tested on: M14 melanoma
OVCAR-8 ovarian = tested on: OVCAR-8 ovarian
HOP-62 NSCLC = tested on: HOP-62 NSCLC
A498 renal = tested on: A498 renal
SK-MEL-5 melanoma = tested on: SK-MEL-5 melanoma
SF-295 CNS = tested on: SF-295 CNS
ACHN renal = tested on: ACHN renal
SNB-75 CNS = tested on: SNB-75 CNS
CAKI-1 renal = tested on: CAKI-1 renal
SF-268 CNS = tested on: SF-268 CNS
BT-549 breast = tested on: BT-549 breast
HL-60(TB) leukemia = tested on: HL-60(TB) leukemia
SK-OV-3 ovarian = tested on: SK-OV-3 ovarian
DU-145 prostate = tested on: DU-145 prostate
UACC-62 melanoma = tested on: UACC-62 melanoma
HCT-15 colon = tested on: HCT-15 colon
OVCAR-4 ovarian = tested on: OVCAR-4 ovarian
RPMI-8226 leukemia = tested on: RPMI-8226 leukemia
KM12 colon = tested on: KM12 colon
SR leukemia = tested on: SR leukemia
MDA-MB-435 = tested on: MDA-MB-435
K-562 leukemia = tested on: K-562 leukemia
A549 NSCLC = tested on: A549 NSCLC
HS 578T breast = tested on: HS 578T breast
COLO 205 colon = tested on: COLO 205 colon
CCRF-CEM leukemia = tested on: CCRF-CEM leukemia
IGROV1 ovarian = tested on: IGROV1 ovarian
HCT-116 colon = tested on: HCT-116 colon
NCI/ADR-RES ovarian = tested on: NCI/ADR-RES ovarian
SF-539 CNS = tested on: SF-539 CNS
786-0 renal = tested on: 786-0 renal

## CN(C)CCCN1c2ccccc2Sc2ccc(Cl)cc21
PC-3 prostate
  GI50: 11.9 µM and 4.52 µM
  TGI: 26.3 µM and 17.3 µM
OVCAR-3 ovarian
  GI50: 3.83 µM and 6.36 µM
  TGI: 12.6 µM and 18.8 µM
NCI-H522 lung
  GI50: 2.74 µM and 2.79 µM
  TGI: 7.16 µM and 8.9 µM
HOP-92 NSCLC
  GI50: 1.82 µM
  TGI: 8.71 µM
HCC-2998 colon
  GI50: 1.97 µM
  TGI: 4.14 µM
RXF 393 renal
  GI50: 3.16 µM and 2.85 µM
  TGI: 12.2 µM and 11 µM
NCI-H23 lung
  GI50: 8.92 µM and 13.3 µM
  TGI: 22.2 µM and 27.6 µM
UACC-257 melanoma
  GI50: 2.08 µM and 3.24 µM
  TGI: 4.33 µM and 13 µM
NCI-H460 lung
  GI50: 4.72 µM and 10.8 µM
  TGI: 17.1 µM and 23.8 µM
HT29 colon
  GI50: 3.26 µM and 3.96 µM
  TGI: 10.8 µM and 13.6 µM
MOLT-4 leukemia
  GI50: 4.78 µM and 6.84 µM
  TGI: 18.4 µM and 23.7 µM
U251 CNS
  GI50: 2.62 µM and 3.46 µM
  TGI: 7.9 µM and 14.4 µM
TK-10 renal
  GI50: 9.64 µM and 6.76 µM
  TGI: 22.3 µM and 20.3 µM
SNB-19 CNS
  GI50: 7.01 µM and 11.9 µM
  TGI: 20.9 µM and 25 µM
T-47D breast
  GI50: 5.92 µM and 8.6 µM
  TGI: 20 µM and 23.4 µM
OVCAR-5 ovarian
  GI50: 5.2 µM and 11.8 µM
  TGI: 17.6 µM and 24.8 µM
SN12C renal
  GI50: 3.85 µM and 4.87 µM
  TGI: 14.8 µM and 17.7 µM
UO-31 renal
  GI50: 2.89 µM and 3.46 µM
  TGI: 13.7 µM and 17.2 µM
SK-MEL-2 melanoma
  GI50: 3.81 µM and 5.52 µM
  TGI: 13.4 µM and 19.5 µM
MALME-3M melanoma
  GI50: 14.9 µM and 3.04 µM
  TGI: 31.5 µM and 15.8 µM
SW-620 colon
  GI50: 3.57 µM and 3.69 µM
  TGI: 13.7 µM and 14.6 µM
SK-MEL-28 melanoma
  GI50: 2.03 µM and 3.65 µM
  TGI: 4.69 µM and 14.4 µM
MDA-MB-231 breast
  GI50: 1.99 µM and 2.1 µM
  TGI: 5.35 µM and 6.87 µM
EKVX NSCLC
  GI50: 12.7 µM and 11.8 µM
  TGI: 28.1 µM and 28 µM
MCF7 breast
  GI50: 3.15 µM and 3.46 µM
  TGI: 12.6 µM and 13.7 µM
NCI-H226 lung
  GI50: 13.1 µM and 15.2 µM
  TGI: 29.8 µM and 29.1 µM
LOX IMVI melanoma
  GI50: 10.8 µM and 10.3 µM
  TGI: 23.4 µM and 24.5 µM
M14 melanoma
  GI50: 2.03 µM and 2.58 µM
  TGI: 3.89 µM and 6.18 µM
OVCAR-8 ovarian
  GI50: 4.07 µM and 9.24 µM
  TGI: 15.5 µM and 22.8 µM
HOP-62 NSCLC
  GI50: 14.6 µM and 11.7 µM
  TGI: 28.8 µM and 24.9 µM
A498 renal
  GI50: 10.5 µM and 3.46 µM
  TGI: 23.7 µM and 16.6 µM
SK-MEL-5 melanoma
  GI50: 1.71 µM and 1.77 µM
  TGI: 3.11 µM and 3.35 µM
SF-295 CNS
  GI50: 4.13 µM and 8.91 µM
  TGI: 17.3 µM and 22.9 µM
ACHN renal
  GI50: 4.06 µM and 5.71 µM
  TGI: 14.8 µM and 18.3 µM
SNB-75 CNS
  GI50: 4.63 µM and 6.09 µM
  TGI: 19.7 µM and 23 µM
CAKI-1 renal
  GI50: 6.78 µM and 6.91 µM
  TGI: 20.7 µM and 20.8 µM
SF-268 CNS
  GI50: 8.89 µM and 5.25 µM
  TGI: 21.4 µM and 18.5 µM
BT-549 breast
  GI50: 10.9 µM and 11.2 µM
  TGI: 23.5 µM and 24.4 µM
HL-60(TB) leukemia
  GI50: 4.98 µM and 11.6 µM
  TGI: 20.7 µM and 28.6 µM
SK-OV-3 ovarian
  GI50: 2.76 µM and 3.22 µM
  TGI: 7.62 µM and 9.3 µM
DU-145 prostate
  GI50: 11.7 µM and 11.2 µM
  TGI: 24.1 µM and 23.4 µM
UACC-62 melanoma
  GI50: 1.94 µM and 2.07 µM
  TGI: 4.01 µM and 5.11 µM
HCT-15 colon
  GI50: 3.69 µM and 4.7 µM
  TGI: 14.3 µM and 16.6 µM
OVCAR-4 ovarian
  GI50: 7.84 µM and 9.23 µM
  TGI: 20.7 µM and 22.5 µM
RPMI-8226 leukemia
  GI50: 13.6 µM
  TGI: 32.6 µM
KM12 colon
  GI50: 4.23 µM and 5.55 µM
  TGI: 14.8 µM and 17.6 µM
SR leukemia
  GI50: 3.01 µM and 3.94 µM
  TGI: 11 µM and 20.2 µM
MDA-MB-435
  GI50: 1.94 µM and 2.21 µM
  TGI: 4.04 µM and 6.09 µM
K-562 leukemia
  GI50: 3.16 µM
  TGI: 11.3 µM
A549 NSCLC
  GI50: 3.31 µM and 3.37 µM
  TGI: 11.3 µM and 14.1 µM
HS 578T breast
  GI50: 4.32 µM and 3.77 µM
  TGI: 24.4 µM and 21 µM
COLO 205 colon
  GI50: 1.89 µM and 2.85 µM
  TGI: 3.77 µM and 7.68 µM
CCRF-CEM leukemia
  GI50: 7.38 µM
  TGI: 24.3 µM
IGROV1 ovarian
  GI50: 11.7 µM and 4.63 µM
  TGI: 26.7 µM and 18.4 µM
HCT-116 colon
  GI50: 3.28 µM and 3.6 µM
  TGI: 10.9 µM and 12.8 µM
NCI/ADR-RES ovarian
  GI50: 11.9 µM and 9.23 µM
  TGI: 25.1 µM and 22.4 µM
SF-539 CNS
  GI50: 3.22 µM and 11.4 µM
  TGI: 7.79 µM and 26 µM
786-0 renal
  GI50: 3.81 µM and 12 µM
  TGI: 14.2 µM and 26.6 µM
